Data as given in article PMC10601989, “Charge and lipophilicity are required for effective block of the hair-cell mechano-electrical transducer channel by FM1-43 and its derivatives” (Frontiers in Cell and Developmental Biology, 2023).

system: T1, hair-cell mechano-electrical transducer (MET) channel (native, mouse cochlear outer hair cells); assay: whole-cell patch clamp of MET currents, fluid-jet bundle stimulation, fractional block; type: cell-based; details: -64 mV; extracellular superfusion, 1.3 mM Ca2+, pH 7.48, room temperature; permeant voltage-dependent block
T1 construct: gene Tmc1; native full-length MET complex in outer hair cells of P2 organotypic cochlear cultures kept 1-2 days in vitro; TMC1 and/or TMC2 pore with TMIE (subunits named only in the discussion; copy numbers from the C. elegans cryo-EM structure it cites); with Transmembrane inner ear expressed protein

How did the “% block at 10 μM” value turn out when `CCCCN(CCCC)c1ccc(/C=C/c2cc[n+](CCC[N+](CC)(CC)CC)cc2)cc1` [compound 13550, FM1-43] was run?
Its value is ~ 30%.

`CCCCN(CCCC)c1ccc(/C=C/c2cc[n+](CCCC(=O)OCC)cc2)cc1` [compound 13551, 13551] was tested. Which “% block at 10 μM” value did it give?
Its value is > 80%.

Which “% block at 10 μM” value does the source give for `CCCCN(CCCC)c1ccc(/C=C/c2cc[n+](CCCCC[N+](CC)(CC)CC)cc2)cc1` [compound 13667, 13667] here?
Its value is > 80%.

For `CCCCN(CCCC)c1ccc(/C=C/c2cc[n+](CCCC[N+](CC)(CC)CC)cc2)cc1` [compound 13669, 13669], which “% block at 10 μM” value is on record?
Its value is > 80%.
